The values below come from patent US10941114B2, “Small molecule lipid II inhibitors” (University Of Maryland, Baltimore, priority 2015, dated 2021).

Counter-ions that a name gives are not always drawn. Like-named read-outs stand apart in the source and are kept apart here.

Data set [1] is described as follows: Surface Plasmon Resonance determination of Lipid II binding. As to conditions: SPR; for Lipid II binding affinity: FIG. 16. As for the experimental part:
Short-chain water-soluble LII containing a lipid tail of three isoprene units (3-LII) was generated and purified essentially according to methods known in the art. See Breukink et al., Lipid II is an intrinsic component of the pore induced by nisin in bacterial membranes. J. Biol. Chem. 278(22):19898-19903, 2003, the contents of which are hereby incorporated by reference. Typically, M. flavus vesicles (120 μmol lipid-Pi) were incubated together with 500 μmol UDP-GlcNAc, 500 μmol UDP-MurNAC-pentapeptide and 400 μmol farnesyl phosphate in 100 mM Tris-HCl pH 8.0, 5 mM MgCl2. The incubation period was approximately two hours at room temperature for 3-LII (3-P). The synthesis of 3-Lipid II was followed by RP-8 reversed phase TLC (Merck™) developed with 75% methanol. For purification, the membranes were removed by centrifugation at 40,000×g; the supernatant was collected and loaded on a C18 HPLC column and eluted with a linear gradient from 50 mM ammonium bicarbonate to 100% methanol in 30 minutes. Farnesyl-Lipid II (3-Lipid II) eluted at approximately 60% methanol. Its identity was confirmed by mass spectroscopy.
Surface Plasmon Resonance binding experiments were carried out on a BIAcore T100 system (BIAcore™ Inc., Piscataway, N.Y.) at 25° C. The assay buffer was 10 mM HEPES, 150 mM NaCl, 0.05% surfactant P20, pH 7.4 (+3 mM EDTA) supplemented with 10% DMSO. 3-Lipid II (50 RUs) was immobilized on CMS sensor chips using the amine-coupling chemistry recommended by the manufacturer. For initial determination of binding, compounds were introduced into the flow-cells (30.mu·1/min) in the running buffer at 10 μM. Resonance signals were corrected for nonspecific binding by subtracting the background of the control flow-cell. Binding to immobilized 3-LII on the chip surface was determined and scored “yes” in Table 5 when more than 20 Resonance Units or RUs were detected. Detection of less than 20 RUs was scored as “no”, meaning no significant binding to LII. After each analysis, the sensor chip surfaces were regenerated with 50 mM NaOH for 30 seconds at a flow rate 100 μL/min, and equilibrated with the buffer prior to next injection. For binding kinetics studies, binding isotherms were analyzed with manufacturer-supplied software for BIAcore™ T100.

For another data set, the system named is Staphylococcus aureus. The experiment in a line: Antibacterial activity assay (MIC, broth dilution). Format: cell-based. Details: S. aureus Killing / Bacterial Killing S. aureus: unit not given here. The conditions noted are these: for MIC: Staphylococcus aureus. Background: Dilution methods test growth across graded concentrations, often in twofold steps.
The subject of another data set is Enterococcus faecium. The experiment in a line: Antibacterial activity assay (MIC, broth dilution). Format: cell-based. As for the experimental part:
(§1) Determination of the Minimal Inhibitory Concentrations (MIC) by dilution was carried out by broth dilution according to CLSI standards. See CLSI, Methods for Dilution Antimicrobial Susceptibility Tests for Bacteria That Grow Aerobically; Approved Standard—Eighth Edition. 2009, the contents of which are hereby incorporated by reference. Briefly, the minimum inhibitory concentration MIC, is the lowest concentration of a compound that prevents visible growth of a bacterium, in other words at which it has bacteriostatic activity.
For these tests, cation-adjusted Mueller Hinton broth, containing 10% brain-heart infusion (BHI) was used. Concentrations (MIC) are given in μg/mL. The compound was […].
(§2) Compounds were tested for MIC by methods known in the art and described in CLSI, Methods for Dilution Antimicrobial Susceptibility Tests for Bacteria That Grow Aerobically; Approved Standard—Tenth Edition. CLSI document M07-A10. Wayne, Pa.: Clinical and Laboratory Standards Institute, 2015, which is hereby incorporated by reference for these methods.
(§3) Selected compounds also were tested by broth microdilution methods known in the art and described in CLSI, Methods for Dilution Antimicrobial Susceptibility Tests for Bacteria That Grow Aerobically; Approved Standard—Tenth Edition. CLSI document M07-A10. Wayne, Pa.: Clinical and Laboratory Standards Institute, 2015, which is hereby incorporated by reference. Structures of selected compounds in the tables are listed below.

Data set [2] can be described thus: Cytotoxicity testing (CC50, MTS assay). The conditions noted are these: human.
In a further data set the test system is Acinetobacter baumannii. The experiment in a line: Antibacterial activity assay (MIC, broth dilution). Format: cell-based. The conditions noted are these: for MIC: Acinetobacter baumannii. As for the experimental part:
as §1, §2, §3

A short description of data set [3]: Maximum Tolerated Dose (MTD) and in vivo toxicity at the MTD. As to conditions: dose-escalation; final MTD.
A short description of data set [4]: Pharmacokinetic study in mice (plasma concentration by LC/MS/MS).
The conditions of data set [5]: mouse, in vivo, iv, 10 mg/kg.
Another data set concerns HeLa cells. The experiment in a line: Cytotoxicity testing (CC50, MTS assay). The conditions noted are these: HeLa cells. For orientation: Tetrazolium dyes change colour on reduction, which living cells bring about.
[6] abbreviates: ATCC 1509 / VRE, text: E. faecium EF1509 (VRE), footnote: Enterococcus faecalis ATCC 1509, average of two replicates, read-out: MIC EF.
The mark [7] stands for this setting: Enterococcus faecium, Table 16, CLSI M07-A10 dilution method, read-out: MIC E. faecium.
[8] abbreviates: S. aureus USA300 (MRSA), average of two replicates, read-out: MIC SA.
[9] abbreviates: Table 16, CLSI M07-A10 dilution method, read-out: MIC S. aureus.
Setting [10] is: A. baumannii 2-2-2 (colistin-resistant clinical isolate), average of two replicates, read-out: MIC AB.
Setting [11] is: Table 16, CLSI M07-A10 dilution method, read-out: MIC A. baumannii.
Setting [12] is: single dose of 10 mg/kg by intravenous injection in CD1 mice (n=3).
The mark [13] stands for this setting: E. faecium EF1509 (VRE), average of two replicates.
The mark [14] stands for this setting: S. aureus USA300 (MRSA), average of two replicates.
Where [15] appears, read: A. baumannii 2-2-2 (colistin-resistant clinical isolate), average of two replicates.
Where [16] appears, read: single dose of 10 mg/kg by intravenous injection.
Setting [17] is: text: E. faecium EF1509 (VRE), footnote: Enterococcus faecalis ATCC 1509, average of two replicates.

On to `CN(C)c1ccc(/C=C/c2cc(-c3ccc(Cl)cc3)cc(-c3ccc(Cl)cc3)[o+]2)cc1` [(E)-2,4-bis(4-chlorophenyl)-6-(4-(dimethylamino)styryl)pyrylium boron tetrafluoride salt], for which the “Lipid II Binding” value in data set [1] (immobilized 3-LII, compounds at 10 μM) is “yes (scored “yes” in Table 5 when more than 20 Resonance Units or RUs were detected)”. In addition, the “S. aureus Killing” value in the data set with Staphylococcus aureus (anti-bacterial activity (MIC), strain not stated) was determined as 32.

The term MIC denotes the lowest concentration found to suppress growth. A word on the CC50: it is the concentration at which the toxic effect on the cells reaches its halfway point. With `Cc1ccc(-c2cc(-c3ccc(Cl)cc3)cc(/C=C/c3ccc(N(C)CCO)cc3)[n+]2C)cc1.[I-]` [Compound 9p, (E)-4-(4-chlorophenyl)-2-(4-((2-hydroxyethyl)(methyl)amino)styryl)-1-methyl-6-(p-tolyl)pyridin-1-ium iodide], the MIC in the data set with Enterococcus faecium (setting [6]) stood at 2 µg/mL; with Enterococcus faecium (setting [7]) it was 2 µg/mL; in the data set with Staphylococcus aureus (setting [8]), 0.25 µg/mL; in the data set on Staphylococcus aureus (setting [9]), 0.25 µg/mL; in the data set on Acinetobacter baumannii (setting [10]), 16 µg/mL; in the data set on Acinetobacter baumannii (setting [11]), 16 µg/mL. This compound showed a cytotoxic concentration (CC50) at 24 h in data set [2] (HeLa cells) of 5.5 µg/mL.

Consider `Cc1ccc(-c2cc(-c3ccc(Br)cc3)cc(/C=C/c3ccc(N(C)C)cc3)[n+]2C)c(C)c1.[I-]` [Compound 9s, (E)-4-(4-bromophenyl)-2-(4-(dimethylamino)styryl)-6-(2,4-dimethylphenyl)-1-methylpyridin-1-ium iodide], for which the MIC with Enterococcus faecium (setting [6]) came to 1 µg/mL; in the data set on Enterococcus faecium (setting [7]), 1 µg/mL; with Staphylococcus aureus (setting [8]) it was 0.25 µg/mL; in the data set with Staphylococcus aureus (setting [9]) it was 0.25 µg/mL; with Acinetobacter baumannii (setting [10]) it was 16 µg/mL; in the data set with Acinetobacter baumannii (setting [11]), 16 µg/mL. The compound also returned a CC50 at 24 h in data set [2] of 3.5 µg/mL.

For the compound `CCN(CC)c1ccc(/C=C/c2cc(-c3ccc(Br)cc3)cc(-c3ccc(C)c(C)c3)[n+]2C)cc1.[I-]` [Compound 9v, (E)-4-(4-bromophenyl)-2-(4-(diethylamino)styryl)-6-(3,4-dimethylphenyl)-1-methylpyridin-1-ium iodide], the MIC came to 4 µg/mL in the data set with Enterococcus faecium (setting [6]); 4 µg/mL with Enterococcus faecium (setting [7]); 2 µg/mL with Staphylococcus aureus (setting [8]); 2 µg/mL in the data set on Staphylococcus aureus (setting [9]); 4 µg/mL in the data set on Acinetobacter baumannii (setting [10]); 4 µg/mL in the data set with Acinetobacter baumannii (setting [11]). The compound also came in with a cytotoxic concentration (CC50) at 24 h in data set [2] (HeLa cells) of 5.5 µg/mL.

The Cmax is the highest concentration seen after dosing. The MRT is a mean duration of stay, worked out from the concentration-time curve. For `CN(CCC#N)c1ccc(/C=C/c2cc(-c3ccc(Br)cc3)cc(-c3ccc(Br)cc3)[n+]2C)cc1.[I-]` [Compound 12c], in data set [3], the “Maximum Tolerated Dose (MTD)” value turned out to be 40 mg/kg. Besides, in data set [4] (setting [12]), the AUCInf turned out to be 2137 ± 455 ng·h/mL, the AUCextrap was found to be 12.9 ± 5.6%, the Cl3 was 80.3 ± 16.6 mL/min/kg and the Cmax is 3975 ± 739 ng/mL. Also, in data set [4] (setting [12]), the MRT was determined as 9.13 ± 3.17 h, the T1/2 was 11 ± 2.37 h and the “Vss—obs” value was 46.3 ± 23.3 L/kg.

In the case of `CC(C)C[n+]1c(/C=C/c2ccc(N(C)C)cc2)cc(-c2ccc(Br)cc2)cc1-c1ccc(Br)cc1.[I-]` [EL-1], in [3], the “Maximum Tolerated Dose (MTD)” value is recorded as 25 mg/kg. For the same compound, in data set [5], the AUCInf was 1528 ± 286 ng·h/mL, the AUCextrap is 5.15 ± 1.28%, the Cl3 is 111 ± 20 mL/min/kg and the “Cl—obs” value is on record as 111 ± 20 mL/min/kg. In [5], the MRT is recorded as 4.42 ± 0.72 h and the T1/2 is given as 8.33 ± 0.84 h. Moreover, the “MIC EF” value against Enterococcus faecium (setting [13]) was 1 µg/mL. Moreover, the “Lipid II binding affinity” value in data set [1] is “below micromolar”. The “MIC SA” value against Staphylococcus aureus (setting [14]) is 0.5 µg/mL. Besides, the cytotoxic concentration (CC50) in the data set on HeLa cells (exposure 24 hour) was determined as 5 µg/mL. Also, the “MIC AB” value against Acinetobacter baumannii (setting [15]) turned out to be 4 µg/mL.

Turning to `CN(C)c1ccc(/C=C/c2cc(-c3ccc(Br)cc3)cc(-c3ccc(Br)cc3)[n+]2C2CCCCC2)cc1.[I-]` [EL-5], in [4] (setting [16]), the AUCextrap worked out at 27.2 ± 1.6% and the AUClast/D worked out at 300 ± 58 ng·h/mL. Moreover, in data set [5], the AUCInf amounted to 4125 ± 780 ng·h/mL, the “Cl—obs” value was determined as 41.29 ± 7 mL/min/kg, the mean residence time (MRT) is recorded as 18.8 ± 1.62 h and the T1/2 came out at 23.8 ± 0.84 h. Also, in the data set on Enterococcus faecium (setting [13]), the “MIC EF” value is 0.25 µg/mL. Besides, the “Lipid II binding affinity” value in data set [1] is reported as “below micromolar”. Also, the “MIC SA” value in the data set on Staphylococcus aureus (setting [14]) turned out to be 1 µg/mL. Further, the 50% cytotoxic concentration (CC50) in the data set with HeLa cells (exposure 24 hour) came to 4 µg/mL. Moreover, the “MIC AB” value in the data set with Acinetobacter baumannii (setting [15]) was 0.5 µg/mL.

As for `Cc1ccc(-c2cc(-c3ccc(Br)cc3)cc(/C=C/c3ccc(N(C)C)cc3)[n+]2C)cc1.[I-]` [EL-8], in [4] (setting [16]), the AUCextrap is on record as 4.63 ± 0.51% and the AUClast/D came out at 72.9 ± 17.9 ng·h/mL. In data set [5], the AUCInf came out at 764 ± 187 ng·h/mL, the AUClast/D is 729 ± 179 mg·h/mL, the MRT is on record as 1.74 ± 0.49 h and the T1/2 is given as 9.4 ± 1.01 h. Besides, the “MIC EF” value with Enterococcus faecium (setting [17]) turned out to be 4 µg/mL. For the same compound, in data set [1], the “Lipid II binding affinity” value is on record as “below micromolar”. Besides, the “MIC SA” value in the data set on Staphylococcus aureus (setting [14]) was 0.5 µg/mL. The compound also yielded a CC50 in the data set with HeLa cells (exposure 24 hours) of 12 µg/mL. For the same compound, in the data set with Acinetobacter baumannii (setting [15]), the “MIC AB” value is 4 µg/mL.

For the compound `Cc1ccc(/C=C/c2cc(-c3ccc(Br)cc3)cc(-c3ccc(Br)cc3)[n+]2C)cc1.[I-]` [EL-11], in data set [4] (setting [16]), the AUCextrap is 12.9 ± 5.6% and the AUClast/D came out at 185.3 ± 37.3 ng·h/mL. Also, in data set [5], the AUCInf came out at 2137 ± 455 ng·h/mL, the AUClast/D came out at 1853 ± 372 mg·h/mL, the “Cl—obs” value is given as 80.3 ± 16.6 mL/min/kg and the mean residence time (MRT) is on record as 9.13 ± 3.17 h. The same compound showed a T1/2 in data set [5] of 11 ± 2.37 h. Besides, the “MIC EF” value in the data set on Enterococcus faecium (setting [17]) was 4 µg/mL. Also, the “Lipid II binding affinity” value in [1] is recorded as “below micromolar”. The “MIC SA” value in the data set on Staphylococcus aureus (setting [14]) worked out at 1 µg/mL. The same compound showed a half-maximal cytotoxic concentration (CC50) with HeLa cells (exposure 24 hours) of 5 µg/mL. Moreover, the “MIC AB” value against Acinetobacter baumannii (setting [15]) is over 64 µg/mL.
